# Results reported in PMC10350924, “Design, Synthesis, and Pharmacological Characterization of a Potent Soluble Epoxide Hydrolase Inhibitor for the Treatment of Acute Pancreatitis” (Journal of Medicinal Chemistry, 2023).
# What was measured:
# 5-LOX [1] = target: T1, 5-LOX (Homo sapiens, UniProt P09917); assay: 5-LOX product formation in human activated PMNL (A23187); type: cell-based; set-up: Freshly isolated PMNL (5 × 10^6) suspended in PBS pH 7.4 with 1 mg/mL glucose were preincubated with the test compounds; endogenous in cells; host or cells: human PMNL from donor blood; remaining activity: dose or concentration left out as unconfirmed; conditions: for remaining activity at 10 µM / IC50: human activated PMNL; for remaining activity at 10 µM: read-out: 5-LOX residual activity in PMNL (%) at 10 μM; for remaining activity: PMNL, read-out: 5-LO residual activity in PMNL (%)
# T1 sequence (P09917 1-674): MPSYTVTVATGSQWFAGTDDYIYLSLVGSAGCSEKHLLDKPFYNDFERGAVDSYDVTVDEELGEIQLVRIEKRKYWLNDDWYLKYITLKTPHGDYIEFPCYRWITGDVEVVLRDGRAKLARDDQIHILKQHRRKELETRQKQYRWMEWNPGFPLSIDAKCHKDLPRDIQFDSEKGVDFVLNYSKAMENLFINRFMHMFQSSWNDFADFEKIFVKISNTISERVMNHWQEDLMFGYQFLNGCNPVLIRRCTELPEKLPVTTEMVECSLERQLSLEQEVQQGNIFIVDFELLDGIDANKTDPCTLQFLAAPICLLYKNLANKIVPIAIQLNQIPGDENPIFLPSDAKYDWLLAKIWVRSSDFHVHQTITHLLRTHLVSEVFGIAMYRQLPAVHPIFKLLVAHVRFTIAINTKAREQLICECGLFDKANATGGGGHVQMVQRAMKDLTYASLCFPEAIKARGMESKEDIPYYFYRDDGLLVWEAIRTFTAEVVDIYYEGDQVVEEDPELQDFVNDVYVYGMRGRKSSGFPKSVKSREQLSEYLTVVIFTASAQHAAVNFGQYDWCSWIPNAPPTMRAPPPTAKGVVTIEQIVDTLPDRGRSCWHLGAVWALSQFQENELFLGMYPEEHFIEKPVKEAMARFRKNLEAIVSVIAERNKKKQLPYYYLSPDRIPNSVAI
# Method: Human PMNL were freshly isolated from leukocyte concentrates that were obtained from the Institute for Transfusion Medicine of the University Hospital Jena (Germany). […] These volunteers regularly donated blood (every 8–12 weeks) and were physically inspected by a clinician. […] Leukocytes were concentrated by centrifugation (4000g/20 min/20 °C) of freshly withdrawn blood. […] PMNL were obtained from the cell pellet. […] The reaction was stopped with an equal volume of methanol containing PGB1 (200 ng) as internal standard. Major 5-LOX products (all-trans isomers of LTB and 5-HETE, and additionally LTB4) were extracted and analyzed by RP-HPLC as described for the determination of cell-free 5-LOX activity.
# 5-LOX [2] = target: T1, 5-LOX; assay: Cell-free 5-LOX activity assay; type: biochemical; set-up: made in house; host or cells: Escherichia coli Bl21 (DE3); conditions: for IC50: human isolated 5-LOX; for inhibition of 5-LOX activity, times lower than 6: isolated 5-LOX, relative to compound 6
# Method: Human recombinant 5-LOX was expressed in Escherichia coli Bl21 (DE3) cells that were transformed with the plasmid pT3-5LO (wt 5-LOX) and purified on an adenosine triphosphate (ATP)-agarose column by affinity chromatography.[40],[41] In a first step, E. coli was lysed in 50 mM triethanolamine/HCl pH 8.0 with ethylenediamine tetraacetic acid (EDTA) (5 mM), soybean trypsin inhibitor (60 μg/mL), phenylmethanesulfonyl fluoride (1 mM), dithiothreitol (1 mM), and lysozyme (1 mg/mL) and sonicated 3 times for 15 s. The homogenate was centrifuged at 40,000g for 20 min at 4 °C. The supernatant was transferred to an ATP-agarose column (Sigma-Aldrich, Deisenhofen, Germany), which was sequentially washed with phosphate-buffered saline (PBS) pH 7.4, 1 mM EDTA, 50 mM phosphate buffer pH 7.4, 0.5 M NaCl, 1 mM EDTA, and finally 50 mM phosphate buffer pH 7.4 plus 1 mM EDTA. The enzyme was eluted with 50 mM phosphate buffer pH 7.4, 1 mM EDTA, and 20 mM ATP.
# 5-LOX product formation was started by the addition of 20 μM arachidonic acid (Sigma-Aldrich) and CaCl2 (2 mM) and stopped by the addition of an equal volume of ice-cold methanol containing PGB1 (200 ng) as internal standard after 10 min at 37 °C.
# Human recombinant sEH = target: T2, Human recombinant sEH (Homo sapiens, UniProt P34913); assay: Cell-free sEH activity (PHOME fluorescence); type: biochemical; conditions: human isolated sEH
# T2 construct: made in house; host or cells: Sf9 insect cells (recombinant baculovirus)
# T2 sequence (P34913 1-555): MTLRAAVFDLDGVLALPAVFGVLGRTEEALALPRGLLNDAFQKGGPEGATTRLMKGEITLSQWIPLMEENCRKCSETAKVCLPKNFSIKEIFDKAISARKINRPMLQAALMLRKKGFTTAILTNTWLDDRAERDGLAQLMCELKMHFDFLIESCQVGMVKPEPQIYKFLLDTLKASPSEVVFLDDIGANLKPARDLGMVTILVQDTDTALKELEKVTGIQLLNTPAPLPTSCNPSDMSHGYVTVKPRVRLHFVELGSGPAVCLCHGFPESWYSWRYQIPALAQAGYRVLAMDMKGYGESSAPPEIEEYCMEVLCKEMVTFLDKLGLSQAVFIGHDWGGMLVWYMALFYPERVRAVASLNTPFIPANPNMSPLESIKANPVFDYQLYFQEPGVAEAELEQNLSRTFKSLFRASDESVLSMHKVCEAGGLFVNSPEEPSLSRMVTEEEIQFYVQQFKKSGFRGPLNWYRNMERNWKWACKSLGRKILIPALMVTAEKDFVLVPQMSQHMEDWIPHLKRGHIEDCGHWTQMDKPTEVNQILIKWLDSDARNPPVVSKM
# Method: Human recombinant sEH was expressed in Sf9 insect cells and purified by affinity chromatography. […] Elution with 4-fluorochalcone oxide in PBS pH 7.4 with 1 mM dithiothreitol and 1 mM EDTA yielded sEH, which was dialyzed and concentrated. Purified sEH (60 ng) in 25 mM Tris HCl pH 7 with 0.1 mg/mL bovine serum albumin (BSA) was preincubated with the vehicle (DMSO) or test compounds for 1 min at room temperature. The sEH substrate PHOME (20 μM, Cayman Chemicals) was added to start the enzymatic reaction, which was stopped after 60 min in the dark by the addition of ZnSO4 (200 mM).
Compound,remaining activity at 10 µM (5-LOX [1]) [%],remaining activity (5-LOX [1]) [%],IC50 (5-LOX [2]) [nM],IC50 (Human recombinant sEH) [nM],IC50 (5-LOX [1]) [µM],"inhibition of 5-LOX activity, times lower than 6 (5-LOX [2])"
"O=C(Nc1ccc2c(c1)CCN2Cc1ccc(F)cc1)C12C[C@H]3C[C@@H](C1)C[C@@H](C2)C3 [Compound 3, (3R,5R,7R)-N-(1-(4-Fluorobenzyl)indolin-5-yl)adamantane-1-carboxamide]",53.2 ± 9.9,53.2 ± 9.9,74 ± 18,285 ± 31.2,–,–
"CC1(C)C2CC[C@@]1(CS(=O)(=O)Nc1ccc3c(c1)CCN3Cc1ccc(F)cc1)C(=O)C2 [Compound 4, 1-((1S)-7,7-Dimethyl-2-oxobicyclo[2.2.1]heptan-1-yl)-N-(1-(4-fluorobenzyl)indolin-5-yl)methanesulfonamide]",2.5 ± 2.5,2.5 ± 2.5,171 ± 66,1800 ± 460,2.56,around 2.5 times
"O=C(NCC12C[C@H]3C[C@@H](C1)C[C@@H](C2)C3)Nc1ccc2c(c1)CCN2Cc1ccc(F)cc1 [Compound 5, 1-(((3R,5R,7R)-Adamantan-1-yl)methyl)-3-(1-(4-fluorobenzyl)indolin-5-yl)urea]",79.7 ± 2.8,73.7 ± 2.8,78 ± 53,11.1 ± 6,–,–
"O=C(NCc1cccc2ccccc12)Nc1ccc2c(c1)CCN2Cc1ccc(F)cc1 [Compound 7, 1-(1-(4-Fluorobenzyl)indolin-5-yl)-3-(naphthalen-1-ylmethyl)urea]",56.3 ± 5.1,56.3 ± 5.1,148 ± 28,36.1 ± 7.5,–,~2 times
"CN1CCCN(CCNC(=O)Nc2ccc3c(c2)CCN3Cc2ccc(F)cc2)CC1 [Compound 8, 1-(1-(4-Fluorobenzyl)indolin-5-yl)-3-(2-(4-methyl-1,4-diazepan-1-yl)ethyl)urea]",71.1 ± 6.6,71.1 ± 6.6,> 1000,> 10000,–,–
"Fc1ccc(CN2CCc3cc(NC(=S)NCC45C[C@H]6C[C@@H](C4)C[C@@H](C5)C6)ccc32)cc1 [Compound 10, 1-(((3R,5R,7R)-Adamantan-1-yl)methyl)-3-(1-(4-fluorobenzyl)indolin-5-yl)thiourea]",–,–,> 1000,288 ± 220,–,–
"COC(=O)CCCn1ccc2cc(NC(=O)NCC34C[C@H]5C[C@@H](C3)C[C@@H](C4)C5)ccc21 [Compound 32, Methyl 4-(5-(3-(((3R,5R,7R)-Adamantan-1-yl)methyl)ureido)-1H-indol-1-yl)butanoate]",30.1 ± 4.8,30.1 ± 4.8,> 1000,21.3 ± 11.9,6.83 ± 0.84,–
"O=C(Nc1ccc2c(ccn2Cc2ccc(F)cc2)c1)NC12C[C@H]3C[C@@H](C1)C[C@@H](C2)C3 [Compound 33, 1-((3S,5S,7S)-Adamantan-1-yl)-3-(1-(4-fluorobenzyl)-1H-indol-5-yl)urea]",–,97.8 ± 0.3,> 1000,13.4 ± 3.1,–,–
"NCCCn1ccc2cc(NC(=O)NCC34CC5CC(CC(C5)C3)C4)ccc21 [Compound 39, 1-(((3R,5R,7R)-Adamantan-1-yl)methyl)-3-(1-(3-aminopropyl)-1H-indol-5-yl)urea]",51.8 ± 13,51.8 ± 13,> 1000,27.2 ± 11.8,–,–
"O=C(NCC12C[C@H]3C[C@@H](C1)C[C@@H](C2)C3)Nc1ccc2c(ccn2-c2ccc(F)cc2)c1 [Compound 45, 1-(((3R,5R,7R)-Adamantan-1-yl)methyl)-3-(1-(4-fluorophenyl)-1H-indol-5-yl)urea]",80.9 ± 1.7,80.9 ± 1.7,> 1000,4.4 ± 0.5,–,–
"O=C(NCC12C[C@H]3C[C@@H](C1)C[C@@H](C2)C3)Nc1ccc2c(c1)c1ccccc1n2Cc1ccc(F)cc1 [Compound 48, 1-(((3R,5R,7R)-Adamantan-1-yl)methyl)-3-(9-(4-fluorobenzyl)-9H-carbazol-3-yl)urea]",92.6 ± 4,92.6 ± 4,> 1000,20 ± 3.8,–,–

# More lines, now with the values ahead:
remaining activity at 10 µM (5-LOX [1]) [%],remaining activity (5-LOX [1]) [%],IC50 (5-LOX [2]) [nM],IC50 (Human recombinant sEH) [nM],IC50 (5-LOX [1]) [µM],"inhibition of 5-LOX activity, times lower than 6 (5-LOX [2])",Compound
57.7 ± 9.6,57.7 ± 9.6,> 1000,24.1 ± 4.1,–,–,"O=C(NCC12C[C@H]3C[C@@H](C1)C[C@@H](C2)C3)Nc1ccc2c(c1)CCN2Cc1ccc(C(=O)O)cc1 [Compound 14, 4-((5-(3-(((3R,5R,7R)-Adamantan-1-yl)methyl)ureido)indolin-1-yl)methyl)benzoic Acid]"
65.1 ± 9.4,65.1 ± 9.4,> 1000,11.4 ± 3.6,–,–,"COC(=O)c1ccc(Cn2ccc3cc(NC(=O)NCC45C[C@H]6C[C@@H](C4)C[C@@H](C5)C6)ccc32)cc1 [Compound 29, Methyl 4-((5-(3-(((3R,5R,7R)-Adamantan-1-yl)methyl)ureido)-1H-indol-1-yl)methyl)benzoate]"
2.1 ± 1.1,2.1 ± 1.1,> 1000,15.1 ± 7.7,4.4 ± 0.42,–,"O=C(NCC12C[C@H]3C[C@@H](C1)C[C@@H](C2)C3)Nc1ccc2c(ccn2Cc2ccc(C(=O)O)cc2)c1 [Compound 37, 4-((5-(3-(((3R,5R,7R)-Adamantan-1-yl)methyl)ureido)-1H-indol-1-yl)methyl)benzoic Acid]"
41.2 ± 7.8,41.2 ± 7.8,> 1000,53.3 ± 15.9,8.15 ± 1.86,–,"O=C(O)CCCn1ccc2cc(NC(=O)NCC34C[C@H]5C[C@@H](C3)C[C@@H](C4)C5)ccc21 [Compound 38, 4-(5-(3-(((3R,5R,7R)-Adamantan-1-yl)methyl)ureido)-1H-indol-1-yl)butanoic Acid]"
6.6 ± 4,6.6 ± 4,> 1000,14.9 ± 4.6,6.19 ± 2.41,–,"NCc1ccc(Cn2ccc3cc(NC(=O)NCC45C[C@H]6C[C@@H](C4)C[C@@H](C5)C6)ccc32)cc1 [Compound 42, 1-(((3R,5R,7R)-Adamantan-1-yl)methyl)-3-(1-(4-(aminomethyl)benzyl)-1H-indol-5-yl)urea]"
